Assay results published in ChEMBL document CHEMBL1136143, “Synthesis and activity of novel benzoxazole derivatives of mannopeptimycin glycopeptide antibiotics” (2003).
Values after ≈ are worked out from the molar mass of the structure shown.

Legend:
[1] = system: Staphylococcus haemolyticus; assay: In vitro minimum inhibitory concentration against methicillin-resistant Coagulase-negative Staphylococci (MRCNS) (GC 4547)); assay type: functional
Staphylococcus aureus [2] = assay: In vitro minimum inhibitory concentration against Methicillin-resistant Staphylococcus aureus (GC 1131); assay type: functional
Staphylococcus aureus [3] = assay: In vitro minimum inhibitory concentration against glycopeptide tntermediate Staphylococcus aureus (GC 3066); assay type: functional
Enterococcus faecalis [4] = assay: In vitro minimum inhibitory concentration against vancomycin-resistant Enterococcus faecalis (GC 2242); assay type: functional
Staphylococcus aureus [5] = assay: In vitro minimum inhibitory concentration against Methicillin-resistant Staphylococcus aureus (GC 2216); assay type: functional
[6] = system: Staphylococcus haemolyticus; assay: In vitro minimum inhibitory concentration against methicillin-susceptible Coagulase-negative Staphylococci (MSCNS) (GC 4549)); assay type: functional
Staphylococcus aureus [7] = assay: In vitro minimum inhibitory concentration against Methicillin-resistant Staphylococcus aureus(GC 4544); assay type: functional
[8] = system: Staphylococcus haemolyticus; assay: In vitro minimum inhibitory concentration against methicillin-susceptible Coagulase-negative Staphylococci (MSCNS) (GC 4551); assay type: functional
Staphylococcus aureus [9] = assay: In vitro minimum inhibitory concentration against Methicillin-resistant Staphylococcus aureus (GC 4542); assay type: functional
Streptococcus = assay: In vitro minimum inhibitory concentration against Streptococcus Species (5 strains, including PRSP); assay type: functional
Enterococcus faecalis [10] = assay: In vitro minimum inhibitory concentration against vancomycin-susceptible Enterococcus faecalis (GC 4555); assay type: functional
Enterococcus faecalis [11] = assay: In vitro minimum inhibitory concentration against vancomycin-resistant Enterococcus faecalis (GC 6189); assay type: functional
Staphylococcus aureus [12] = assay: In vitro minimum inhibitory concentration against Methicillin-resistant Staphylococcus aureus (GC 4543); assay type: functional
Enterococcus faecalis [13] = assay: In vitro minimum inhibitory concentration against vancomycin-susceptible Enterococcus faecalis (GC 4552); assay type: functional
[14] = system: Staphylococcus haemolyticus; assay: In vitro minimum inhibitory concentration against methicillin-resistant Coagulase-negative Staphylococci (MRCNS) (GC 4548)); assay type: functional
Enterococcus faecalis [15] = assay: In vitro minimum inhibitory concentration against vancomycin-susceptible Enterococcus faecalis (GC 4554); assay type: functional
Streptococcus pneumoniae [16] = assay: In vitro minimum inhibitory concentration against Penicillin susceptible Streptococcus pneumoniae (GC 4565); assay type: functional
[17] = system: Staphylococcus haemolyticus; assay: In vitro minimum inhibitory concentration against methicillin-susceptible Coagulase-negative Staphylococci (MSCNS) (GC 6257); assay type: functional
Staphylococcus aureus [18] = assay: In vitro minimum inhibitory concentration against glycopeptide tntermediate Staphylococcus aureus (GC 3051); assay type: functional
Enterococcus faecalis [19] = assay: In vitro minimum inhibitory concentration against vancomycin-resistant Enterococcus faecalis (GC 3059); assay type: functional
Enterococcus faecium [20] = assay: In vitro minimum inhibitory concentration against vancomycin-resistant Enterococcus faecium (GC 2243); assay type: functional
Streptococcus pneumoniae [21] = assay: In vitro minimum inhibitory concentration against Penicillin resistant Streptococcus pneumoniae (GC 1894); assay type: functional
Staphylococcus aureus [22] = assay: In vitro minimum inhibitory concentration against Methicillin-resistant Staphylococcus aureus(GC 4541); assay type: functional
Enterococcus faecalis [23] = assay: In vitro minimum inhibitory concentration against vancomycin-susceptible Enterococcus faecalis (GC 2691); assay type: functional
Streptococcus agalactiae [24] = assay: In vitro minimum inhibitory concentration against Streptococcus agalactiae (GC4564); assay type: functional
Enterococcus faecalis [25] = assay: In vitro minimum inhibitory concentration against vancomycin-susceptible Enterococcus faecalis (GC 4553); assay type: functional
Streptococcus pneumoniae [26] = assay: In vitro minimum inhibitory concentration against Penicillin susceptible Streptococcus pneumoniae (GC 6242); assay type: functional
Micrococcus luteus = assay: In vitro minimum inhibitory concentration against Micrococcus lutea (GC 4562); assay type: functional
Enterococcus faecium [27] = assay: In vitro minimum inhibitory concentration against vancomycin-susceptible Enterococcus faecium (GC 4556); assay type: functional
Enterococcus sp. = assay: In vitro minimum inhibitory concentration against Enterococcus species (11 strains, including VRE); assay type: functional
Staphylococcus aureus [28] = assay: In vitro minimum inhibitory concentration against Methicillin-resistant Staphylococcus aureus(GC 4545); assay type: functional
[29] = system: Staphylococcus haemolyticus; assay: In vitro minimum inhibitory concentration against methicillin-resistant Coagulase-negative Staphylococci (MRCNS) (GC 4546)); assay type: functional
Enterococcus faecium [30] = assay: In vitro minimum inhibitory concentration against vancomycin-resistant Enterococcus faecium (GC 4558); assay type: functional
Streptococcus pyogenes [31] = assay: In vitro minimum inhibitory concentration against Streptococcus pyogenes (GC 4563); assay type: functional
Staphylococcus aureus [32] = assay: In vitro minimum inhibitory concentration against Staphylococcus aureus (10strains, including MRSA); assay type: functional
Bacillus cereus = assay: In vitro minimum inhibitory concentration against Bacillus cereus (GC 4561) assay organism; assay type: functional
Enterococcus faecium [33] = assay: In vitro minimum inhibitory concentration against vancomycin-susceptible Enterococcus faecium (GC 4557); assay type: functional
Streptococcus pneumoniae [34] = assay: In vitro minimum inhibitory concentration against Penicillin susceptible Streptococcus pneumoniae (GC 4565)
Streptococcus pyogenes [35] = assay: In vitro minimum inhibitory concentration against Streptococcus pyogenes (GC 4563)
Streptococcus agalactiae [36] = assay: In vitro minimum inhibitory concentration against Streptococcus agalactiae (GC4564)

| Structure (SMILES) | MIC [1] | MIC (Staphylococcus aureus [2]) | MIC (Staphylococcus aureus [3]) | MIC (Enterococcus faecalis [4]) | MIC (Staphylococcus aureus [5]) | MIC [6] | MIC (Staphylococcus aureus [7]) | MIC [8] | MIC (Staphylococcus aureus [9]) | MIC (Streptococcus) | MIC (Enterococcus faecalis [10]) | MIC (Enterococcus faecalis [11]) | MIC (Staphylococcus aureus [12]) | MIC (Enterococcus faecalis [13]) | MIC [14] | MIC (Enterococcus faecalis [15]) | MIC [17] | MIC (Staphylococcus aureus [18]) | MIC (Enterococcus faecalis [19]) | MIC (Enterococcus faecium [20]) | further results |
| --- | --- | --- | --- | --- | --- | --- | --- | --- | --- | --- | --- | --- | --- | --- | --- | --- | --- | --- | --- | --- | --- |
| Cc1ccc(Oc2ccc(-c3nc4ccc(C[C@H]5NC(=O)[C@H]([C@@H](C)c6ccccc6)NC(=O)CNC(=O)[C@H](CO)NC(=O)[C@@H]([C@@H](O)[C@@H]6CN=C(N)N6[C@H]6O[C@H](CO)[C@@H](O)[C@H](O)[C@@H]6O)NC(=O)[C@H]([C@H](O)[C@@H]6CN=C(N)N6)NC5=O)cc4o3)cc2)cc1 | 8 µg/mL (≈ 6.79 µM) | 8 µg/mL (≈ 6.79 µM) | 4 µg/mL (≈ 3.39 µM) | 4 µg/mL (≈ 3.39 µM) | 8 µg/mL (≈ 6.79 µM) | 4 µg/mL (≈ 3.39 µM) | 8 µg/mL (≈ 6.79 µM) | 4 µg/mL (≈ 3.39 µM) | 8 µg/mL (≈ 6.79 µM) | 1 µg/mL (≈ 0.849 µM) | 8 µg/mL (≈ 6.79 µM) | 8 µg/mL (≈ 6.79 µM) | 4 µg/mL (≈ 3.39 µM) | 8 µg/mL (≈ 6.79 µM) | 4 µg/mL (≈ 3.39 µM) | 8 µg/mL (≈ 6.79 µM) | 2 µg/mL (≈ 1.7 µM) | 4 µg/mL (≈ 3.39 µM) | 8 µg/mL (≈ 6.79 µM) | 8 µg/mL (≈ 6.79 µM) | MIC (Streptococcus pneumoniae [16]): 4 µg/mL (≈ 3.39 µM); MIC (Streptococcus pneumoniae [21]): 4 µg/mL (≈ 3.39 µM); MIC (Staphylococcus aureus [22]): 8 µg/mL (≈ 6.79 µM); MIC (Enterococcus faecalis [23]): 8 µg/mL (≈ 6.79 µM); MIC (Streptococcus agalactiae [24]): 4 µg/mL (≈ 3.39 µM); MIC (Enterococcus faecalis [25]): 4 µg/mL (≈ 3.39 µM); MIC (Streptococcus pneumoniae [26]): 4 µg/mL (≈ 3.39 µM); MIC (Micrococcus luteus): 1 µg/mL (≈ 0.849 µM); MIC (Enterococcus faecium [27]): 8 µg/mL (≈ 6.79 µM); MIC (Enterococcus sp.): 4 µg/mL (≈ 3.39 µM); MIC (Staphylococcus aureus [28]): 4 µg/mL (≈ 3.39 µM); MIC [29]: 4 µg/mL (≈ 3.39 µM); MIC (Enterococcus faecium [30]): 4 µg/mL (≈ 3.39 µM); MIC (Streptococcus pyogenes [31]): 1 µg/mL (≈ 0.849 µM); MIC (Staphylococcus aureus [32]): 4 µg/mL (≈ 3.39 µM); MIC (Bacillus cereus): 8 µg/mL (≈ 6.79 µM); MIC (Enterococcus faecium [33]): 4 µg/mL (≈ 3.39 µM) |
| C[C@@H](c1ccccc1)[C@@H]1NC(=O)CNC(=O)[C@H](CO)NC(=O)[C@@H]([C@@H](O)[C@@H]2CN=C(N)N2[C@H]2O[C@H](CO)[C@@H](O)[C@H](O)[C@@H]2O)NC(=O)[C@H]([C@H](O)[C@@H]2CN=C(N)N2)NC(=O)[C@@H](Cc2ccc3nc(SCC(=O)c4ccc(Cl)cc4)oc3c2)NC1=O | 4 µg/mL (≈ 3.39 µM) | 4 µg/mL (≈ 3.39 µM) | 4 µg/mL (≈ 3.39 µM) | 16 µg/mL (≈ 13.6 µM) | 8 µg/mL (≈ 6.78 µM) | 1 µg/mL (≈ 0.847 µM) | 4 µg/mL (≈ 3.39 µM) | 4 µg/mL (≈ 3.39 µM) | 4 µg/mL (≈ 3.39 µM) | 2 µg/mL (≈ 1.69 µM) | 16 µg/mL (≈ 13.6 µM) | 16 µg/mL (≈ 13.6 µM) | 2 µg/mL (≈ 1.69 µM) | 2 µg/mL (≈ 1.69 µM) | 2 µg/mL (≈ 1.69 µM) | 16 µg/mL (≈ 13.6 µM) | 1 µg/mL (≈ 0.847 µM) | 4 µg/mL (≈ 3.39 µM) | 32 µg/mL (≈ 27.1 µM) | 8 µg/mL (≈ 6.78 µM) | MIC (Streptococcus pneumoniae [16]): 8 µg/mL (≈ 6.78 µM); MIC (Streptococcus pneumoniae [21]): 8 µg/mL (≈ 6.78 µM); MIC (Staphylococcus aureus [22]): 4 µg/mL (≈ 3.39 µM); MIC (Enterococcus faecalis [23]): 16 µg/mL (≈ 13.6 µM); MIC (Streptococcus agalactiae [24]): 4 µg/mL (≈ 3.39 µM); MIC (Enterococcus faecalis [25]): 4 µg/mL (≈ 3.39 µM); MIC (Streptococcus pneumoniae [26]): 8 µg/mL (≈ 6.78 µM); MIC (Micrococcus luteus): 16 µg/mL (≈ 13.6 µM); MIC (Enterococcus faecium [27]): 8 µg/mL (≈ 6.78 µM); MIC (Enterococcus sp.): 2 µg/mL (≈ 1.69 µM); MIC (Staphylococcus aureus [28]): 2 µg/mL (≈ 1.69 µM); MIC [29]: 1 µg/mL (≈ 0.847 µM); MIC (Enterococcus faecium [30]): 4 µg/mL (≈ 3.39 µM); MIC (Streptococcus pyogenes [31]): 2 µg/mL (≈ 1.69 µM); MIC (Staphylococcus aureus [32]): 2 µg/mL (≈ 1.69 µM); MIC (Bacillus cereus): 1 µg/mL (≈ 0.847 µM); MIC (Enterococcus faecium [33]): 2 µg/mL (≈ 1.69 µM) |
| C[C@@H](c1ccccc1)[C@@H]1NC(=O)CNC(=O)[C@H](CO)NC(=O)[C@@H]([C@@H](O)[C@@H]2CN=C(N)N2[C@H]2O[C@H](CO)[C@@H](O)[C@H](O)[C@@H]2O)NC(=O)[C@H]([C@H](O)[C@@H]2CN=C(N)N2)NC(=O)[C@@H](Cc2ccc3nc(-c4cccc(F)c4)oc3c2)NC1=O | 8 µg/mL (≈ 7.34 µM) | 8 µg/mL (≈ 7.34 µM) | 16 µg/mL (≈ 14.7 µM) | 32 µg/mL (≈ 29.4 µM) | 8 µg/mL (≈ 7.34 µM) | 16 µg/mL (≈ 14.7 µM) | 8 µg/mL (≈ 7.34 µM) | 8 µg/mL (≈ 7.34 µM) | 8 µg/mL (≈ 7.34 µM) | 4 µg/mL (≈ 3.67 µM) | 64 µg/mL (≈ 58.7 µM) | 32 µg/mL (≈ 29.4 µM) | 8 µg/mL (≈ 7.34 µM) | 64 µg/mL (≈ 58.7 µM) | 4 µg/mL (≈ 3.67 µM) | 64 µg/mL (≈ 58.7 µM) | 4 µg/mL (≈ 3.67 µM) | 16 µg/mL (≈ 14.7 µM) | 64 µg/mL (≈ 58.7 µM) | 32 µg/mL (≈ 29.4 µM) | MIC (Streptococcus pneumoniae [34]): 16 µg/mL (≈ 14.7 µM); MIC (Streptococcus pneumoniae [21]): 16 µg/mL (≈ 14.7 µM); MIC (Staphylococcus aureus [22]): 16 µg/mL (≈ 14.7 µM); MIC (Enterococcus faecalis [23]): 32 µg/mL (≈ 29.4 µM); MIC (Enterococcus faecalis [25]): 16 µg/mL (≈ 14.7 µM); MIC (Streptococcus pneumoniae [26]): 8 µg/mL (≈ 7.34 µM); MIC (Micrococcus luteus): 2 µg/mL (≈ 1.83 µM); MIC (Streptococcus pyogenes [35]): 4 µg/mL (≈ 3.67 µM); MIC (Enterococcus faecium [27]): 64 µg/mL (≈ 58.7 µM); MIC (Enterococcus sp.): 16 µg/mL (≈ 14.7 µM); MIC (Staphylococcus aureus [28]): 8 µg/mL (≈ 7.34 µM); MIC [29]: 4 µg/mL (≈ 3.67 µM); MIC (Enterococcus faecium [30]): 16 µg/mL (≈ 14.7 µM); MIC (Streptococcus agalactiae [36]): 8 µg/mL (≈ 7.34 µM); MIC (Staphylococcus aureus [32]): 8 µg/mL (≈ 7.34 µM); MIC (Bacillus cereus): 64 µg/mL (≈ 58.7 µM); MIC (Enterococcus faecium [33]): 8 µg/mL (≈ 7.34 µM) |
